Reference: US11732048B2, “Anti-axl antagonistic antibodies” (BERGEN TEKNOLOGIOVERFØRING AS, priority 2016, dated 2023)
pEC50: −log10 of the molar value. Where two headings read alike, the source gives them in different places.

System: MDA-MB-231 cells
Test: Tumour cell killing using antibody-Saporin conjugates (XTT/PMS viability)
Type: cell-based, human
Experimental: For generation of immunotoxin, the chimeric MAb was non-covalently coupled to a plant toxin Saporin using FabFc-ZAP human conjugate (4.5 nM final concentration) (Advanced Targeting Systems, Cat. no. IT-65). The effect of chAb-Saporin internalization on tumour cell viability was tested using Axl-positive tumour cell line MDA-MB-231 (human triple negative breast carcinoma). Eight hundred cells were seeded per well in 96-well plates in DMEM/F-12 media supplied with 10% FBS, L-glutamine (4 mM), streptomycin (5 μg/ml) and penicillin (5 U/ml) and allowed to attach for 16 hours. The cells were incubated with different dilutions of immunotoxin chAb-Saporin for 72 hrs. The viability of the cells was determined by performing an XTT/PMS assay using a CLARIOstar® microplate reader (BMG LABTECH)
Unconjugated Saporin and an isotype control antibody (human IgG1) coupled to Saporin (control SAP) were used as negative controls.
Tumour cell killing using antibody-Saporin conjugates performed as described in Example 20. A comparison of two variants of humanised 10G5 and YW327.6S2 was performed.

Substance: Saporin
- pEC50 (Table 4, antibody coupled to Saporin via FabFc-ZAP, MDA-MB-231, 72 hrs, read-out: EC50 (effective concentration leading to 50% cell killing)): 7.00
- pEC50 (Table 5, antibody-Saporin conjugates as in Example 20, MDA-MB-231, read-out: EC50 (cell killing)): 6.61
